Measured values from article PMC3432695 (European journal of medicinal chemistry, 2012).
Converted amounts (≈) assume the structure as drawn. “And” between values parts separate entries of the source, which are not always exact repeats. Equal entries are not always repeated.

Tests used:
Chemical = assay type: physicochemical; settings: for t1/2 PBS: PBS pH 7.4, 37 °C, 2 mM
Stability = assay type: in vitro ADME, Bovine; settings: for t1/2 Bovine serum: 37 °C, 2 mM; for hydrolysis rate in Bovine serum relative to rate in PBS: times faster in Bovine serum than in PBS
Stability in Bovine CSF = assay type: in vitro ADME; settings: for t1/2 Bovine CSF: 37 °C, 2 mM
[1] = Solubility in PBS at pH 5, pH 6 and pH 7.4; assay type: physicochemical; settings: for solubility PBS pH 5: PBS pH 5, 37 °C; for solubility PBS pH 5 / solubility PBS pH 6 / solubility PBS pH 7.4: hydrochloride salts of 12, 15, 18, 21; for solubility PBS pH 6: PBS pH 6, 37 °C; for solubility PBS pH 7.4: PBS pH 7.4, 37 °C; for solubility at 4 h: PBS, 37 °C, thermodynamic from solid
[2] = ref Song et al. 15; cited from earlier work
[3] = ref Song et al. 15; cited from earlier work; remark: listed apart in the source
[4] = cited from earlier work
TK1 (+) L929 cells = settings: cited from earlier work; for in vitro uptake in TK1 (+) L929 cells relative to TK1 (−) L929 cells: 24 h incubation in compound containing medium; for retention in cells: incubation continued for 12 h in compound free medium
[5] = tested on: TK1 (+)- or TK1 (−) L929 tumors; settings: intratumoral injection, subcutaneous tumors in nude mice; cited from earlier work
intracranial RG2 glioma = settings: cited from earlier work

3',5'-Di-glycinyl-3-(5-{o-carboran-1-yl}pentan-1-yl)thymidine [Compound 16]
t1/2 PBS (Chemical): 0.22 ± 0.03 h

5'-Glycinyl-3-[5-(2-{2,3-dihydroxyprop-1-yl}-o-carboran-1-yl)pentan-1-yl]thymidine [Compound 21]
t1/2 PBS (Chemical): 2.21 ± 0.15 h
t1/2 Bovine serum (Stability): 1.51 ± 0.04 h
hydrolysis rate in Bovine serum relative to rate in PBS (Stability): 1.5 times
t1/2 Bovine CSF (Stability in Bovine CSF): 2.11 ± 0.14 h
solubility PBS pH 5 [1]: 11.18 ± 0.21 g/L
solubility PBS pH 6 [1]: 3.60 ± 0.12 g/L
solubility PBS pH 7.4 [1]: 0.62 ± 0.03 g/L

3',5'-Di-L-valyl-3-(5-{o-carboran-1-yl}pentan-1-yl)thymidine [Compound 13]
t1/2 PBS (Chemical): 12.91 ± 0.17 h

CC(C)[C@H](N)C(=O)OCCOCn1cnc2c(=O)[nH]c(N)nc21 [Compound 4, valacyclovir, reference compound]
half-life at 2 mM (Chemical; PBS, pH 7.4): 13.6 ± 0.49 h
half-life at 2 mM (Stability; bovine, bovine serum): 6.2 ± 0.17 h
hydrolysis rate in Bovine serum relative to rate in PBS (Stability): 2.2 times
half-life at 2 mM (Stability in Bovine CSF; bovine, bovine CSF): 7.59 ± 0.12 h
solubility relative to 12 ([1]; PBS pH 5, 6, 7.4): 1.5–3 times
solubility at 4 h ([1]; pH 5, aqueous buffer): 72.7 ± 0.4 mg/mL (≈ 224 mM)
solubility at 4 h ([1]; pH 6, aqueous buffer): 13.4 ± 0.26 mg/mL (≈ 41.4 mM)
solubility at 4 h ([1]; pH 7.4, aqueous buffer): 1.91 ± 0.06 mg/mL (≈ 5.89 mM)
half-life for the chemical hydrolysis [2]: 17.15 h
half-life for the hydrolysis in human plasma [3]: 5.2 h
water solubility relative to parental nucleoside analogue (acyclovir) [4]: about 130 times

5'-L-Valyl-3-(5-{o-carboran-1-yl}pentan-1-yl)thymidine [Compound 12]
t1/2 PBS (Chemical): 25.59 ± 0.61 h
t1/2 Bovine serum (Stability): 22.21 ± 0.52 h
hydrolysis rate in Bovine serum relative to rate in PBS (Stability): 1.2 times
t1/2 Bovine CSF (Stability in Bovine CSF): 25.47 ± 0.10 h
solubility relative to compounds 15 and 21 ([1]; PBS pH 5, 6, 7.4): 1–7 times
solubility PBS pH 5 [1]: 26.30 ± 0.90 g/L
solubility PBS pH 6 [1]: 3.70 ± 0.31 g/L
solubility PBS pH 7.4 [1]: 1.31 ± 0.05 g/L

3'-L-Valyl-3-(5-{o-carboran-1-yl}pentan-1-yl)thymidine [Compound 11]
t1/2 PBS (Chemical): 29.79 ± 0.42 h

5'-L-Glutam-5-yl-3-(5-{o-carboran-1-yl}pentan-1-yl)thymidine [Compound 18]
t1/2 PBS (Chemical): 11.16 ± 0.37 h
t1/2 Bovine serum (Stability): 0.85 ± 0.12 h
hydrolysis rate in Bovine serum relative to rate in PBS (Stability): 13.1 times
t1/2 Bovine CSF (Stability in Bovine CSF): 1.85 ± 0.11 h
hydrolysis rate in CSF relative to PBS (Stability in Bovine CSF; times higher in Bovine CSF than in PBS): 6 times
solubility PBS pH 5 [1]: 1.13 g/L and 1.16 ± 0.04 g/L
solubility PBS pH 6 [1]: 1.13 ± 0.06 g/L
solubility PBS pH 7.4 [1]: 1.77 ± 0.08 g/L

3'-L-Glutam-5-yl-3-(5-{o-carboran-1-yl}pentan-1-yl)thymidine [Compound 17]
t1/2 PBS (Chemical): 26.91 ± 0.71 h

3-[5-{2-(2,3-dihydroxyprop-1-yl)-o-carboran-1-yl}pentan-1-yl]thymidine [Compound 2]
solubility PBS pH 5 [1]: 0.007–0.01 g/L
solubility PBS pH 6 [1]: 0.007–0.01 g/L
solubility PBS pH 7.4 [1]: 0.007–0.01 g/L
in vitro uptake in TK1 (+) L929 cells relative to TK1 (−) L929 cells (TK1 (+) L929 cells): 5–10
retention in cells (TK1 (+) L929 cells): retained only in the former cell line
boron concentration in TK1 (+) relative to TK1 (−) L929 tumors [5]: ~ 3 times
survival times relative to rats that received BNCT without compound (intracranial RG2 glioma; intracranial injection prior to BNCT, rats with intracranial RG2 glioma): about 2 times
pathologic alterations in rat brains (intracranial RG2 glioma; rat, in vivo): no significant pathologic alterations

3',5'-Di-L-glutam-5-yl-3-(5-{o-carboran-1-yl}pentan-1-yl)thymidine [Compound 19]
t1/2 PBS (Chemical): 3.42 ± 0.10 h

3-(5-{o-Carboran-1-yl}pentan-1-yl)thymidine [Compound 1]
solubility PBS pH 5 [1]: 0.003–0.005 g/L
solubility PBS pH 6 [1]: 0.003–0.005 g/L
solubility PBS pH 7.4 [1]: 0.003–0.005 g/L
in vitro uptake in TK1 (+) L929 cells relative to TK1 (−) L929 cells (TK1 (+) L929 cells): 5–10
retention in cells (TK1 (+) L929 cells): retained only in the former cell line

3'-Glycinyl-3-(5-{o-carboran-1-yl}pentan-1-yl)thymidine [Compound 14]
t1/2 PBS (Chemical): 1.51 ± 0.11 h

5'-Glycinyl-3-(5-{o-carboran-1-yl}pentan-1-yl)thymidine [Compound 15]
t1/2 PBS (Chemical): 0.70 ± 0.04 h
t1/2 Bovine serum (Stability): 0.69 ± 0.02 h
hydrolysis rate in Bovine serum relative to rate in PBS (Stability): did not change
t1/2 Bovine CSF (Stability in Bovine CSF): 0.96 ± 0.04 h
solubility PBS pH 5 [1]: 10.99 ± 0.20 g/L
solubility PBS pH 6 [1]: 2.06 ± 0.11 g/L
solubility PBS pH 7.4 [1]: 0.19 ± 0.01 g/L
